Values after ≈ are worked out from the molar mass of the structure shown.

The test system of data set [1] is KM12. The data set can be described thus: Cytotoxicity against human KM12 cells. Format: functional, cell-based.
Data set [2] relates to HeLa. The data set can be described thus: Cytotoxicity against human HeLa cells. Format: functional. The following applies: read-out: ED50 (the source's name).
Data set [3] is described as follows: Cytotoxicity against chinese hamster CHOK1 cells. Particulars: CHO-K1 cells, read-out: ED50 (the source's name). It counts as cell-based, Cricetulus griseus.
In data set [4] the test system is MOLT-4. The data set can be described thus: Cytotoxicity against human MOLT4 cells. Format: functional, cell-based.

Usually IC50 stands for the midpoint of a concentration-inhibition curve. Read a low IC50 as greater potency in that assay. Compound `CC1=C2CC3=C(C)C(=O)O[C@H]3C[C@@H](C)[C@@H]2CC1` [AMERICANOLIDE D] had an IC50 in data set [1] of 0.1 µg/mL (≈ 0.43 µM). The EC50 in data set [2] is 30 µg/mL (≈ 129 µM). Further, the CC50 in data set [3] was found to be 100 µg/mL (≈ 430 µM).

For `CO[C@]12C[C@@H](C)[C@]34O[C@H]3C[C@@]3(C)O[C@@]43CC1=C(C)C(=O)O2` [METHOXYAMERICANOLIDE A], in data set [4], the IC50 is 0.1 µg/mL (≈ 0.342 µM).

The values above are taken from ChEMBL document CHEMBL1145684, “New Guaiane Metabolites from the Caribbean Gorgonian Coral, Pseudopterogorgia americana” (J Nat Prod, 1997).
